According to patent US12662688B2, “Site-selective deuteration of amino acids through dual protein catalysis” (Wisconsin Alumni Research Foundation, priority 2022, dated 2026):

Tests used:
DsaD/E complex [1] = test: Analytical-scale Cα/Cβ H/D exchange with purified DsaD and DsaE; type: biochemical, Streptomyces scopuliridis; settings: 10 mM substrate, 5 μM DsaD, 50 μM DsaE (10:1), 37° C., 8 h
Procedure: FIGS. 3A-3C. Optimization of H/D exchange reactions and evaluation of the substrate scope. FIG. 3A. Optimization of Cβ-deuteration by increasing equivalents of partner protein DsaE. FIG. 3B. Evaluation of substrate scope of dual-protein-catalyzed Cα/Cβ deuteration under optimized conditions. FIG. 3C. UV-visible spectroscopy used to evaluate non-native substrate binding to DsaD. Reaction conditions: 10 mM amino acid substrate, 50 μM DsaE, 5 μM DsaD (10:1), 50 mM sodium phosphate (pD 8.4), 0.1 mM PLP, D2O, 37° C., 8 h. Reactions performed in duplicate, and percentage isotope incorporation is reported as the average of the replicates.
General procedure analytical scale deuteration reactions: α/β deuteration reactions were performed as follows. A 1 mL Eppendorf tube was charged with amino acid (10-20 mM final concentration), Na3PO4 buffer pD 8.4 (50 mM final concentration), PLP (100 μM final concentration), purified enzymes or appropriate lysate and D2O and to the appropriate final volume (typically 50 μL). Reactions were carried out at 37° C. for 8 h and quenched by the addition of 3 volumes of acetonitrile. Precipitated biomolecules were pelleted by centrifugation (16,000×g, 10 min) and samples were processed as described below.
(§1) Marfey's derivatization of analytical scale reactions: Derivatization of the resulting analytical scale product mixture (to increase overall signal and enable reverse phase chromatographic analysis) was achieved by treatment with Marfey's reagent^2 (1-fluoro-2-4-dinitrophenyl-5-L-alanine amide, L-FDAA) using the following protocol. 25 μL of quenched reaction mix (final amine concentration, 1.6 mM) was added to an Eppendorf tube with 50 μL of 15 mM NaHCO3 (final concentration, 5 mM) and 75 μL of 5 mM L-FDAA (final concentration, 2.5 mM). Derivatization reactions were carried out for 10-12 h before quenching with 150 μL of 60 mM HCl dissolved in acetonitrile. Final reaction analysis was carried out by UPLC-DAD-MS and quantitation as described below.
(§2) Quantitation of deuteration in analytical scale reactions: Deuteration reactions were analyzed by UPLC-DAD-MS with single ion recording (SIR) channels set to record a spectrum with the appropriate isotopic mass in positive mode. The area under the curve of recorded SIR peaks was obtained and normalized to account for natural isotopic abundance distributions (e.g. ^13C, ^15N, ^2H, ^34S, etc). Percent deuterium incorporation was calculated by the formula below. These measurements were carried out in an iterative fashion to measure Cα deuteration and Cβ deuteration.

DsaD/E complex [2] = test: Preparative-scale Cα/Cβ-deuteration with DsaD and DsaE clarified lysates in D2O; type: biochemical, Streptomyces scopuliridis
Procedure: FIG. 5. ^1H NMR analysis of site-selective deuteration of L-Leu. Reaction conditions: 20 mM L-Leu 2.5% v/v DsaD clarified lysate, 2.5% v/v DsaE clarified lysate (when needed), 50 mM sodium phosphate (pD 8.4), 0.1 mM PLP, D2O (99.9% D).
FIG. 8. Preparative-scale and site-selective deuteration of amino acids. Conditions: 10-20 mM amino acid, 2.5% v/v DsaD clarified lysate, 2.5% v/v DsaE clarified lysate, 50 mM sodium phosphate (pD 8.4), 0.1 mM PLP, D2O (99.9%).
(§3) General procedure for milligram-scale biocatalytic deuteration: A 4-dram scintillation vial was charged with amino acid (10-20 mM final concentration), Na3PO4 buffer pD 8.4 (50 mM final concentration), PLP (100 μM final concentration), DsaD clarified cell lysate (2.5% v/v), DsaE clarified cell lysate (if applicable) (2.5% v/v), and D2O (or dH2O) to the appropriate final volume. The reaction vessel was placed in an incubator at 37° C. for 16 h. Reaction progress was monitored by UPLC-MS. After reaction completion, the reaction mixture was quenched with an equivalent volume of acetone and centrifuged (4,000 rpm, 10 min) to remove denatured protein. Supernatant was transferred to a clean beaker, the decanted supernatant was concentrated to remove acetone by rotary evaporation and loaded onto a preparative reverse-phase C18 column pre-equilibrated with water. Purification was performed via gradient elution on an Isolera One Flash Purification system (Biotage). Fractions bearing product (confirmed by UPLC-MS sampling of fraction tubes) were pooled and dried by rotary evaporation. The product was then resuspended in a minimal quantity of water, transferred to a pre-weighed 20 mL vial, frozen, and lyophilized.

DsaD = DsaD (Streptomyces scopuliridis, UniProt A0A0D5CCB2); test: UV-vis spectroscopy of amino acid binding to DsaD; settings: 20 μM DsaD, pH 8.0, 25° C.
Procedure: UV-Vis Spectroscopy: Data were collected between 600 and 300 nm on a UV-2600 Shimadzu spectrophotometer (Shimadzu, Kyoto, Japan) with a semi-micro quartz cuvette (Starna Cells, Atascadero, California, USA) at 25° C. DsaD stock solutions were diluted to 20 μM in 50 mM sodium phosphate pH 8.0. For observation of substrate binding, amino acids were added at concentrations ranging from 2.5-10 mM. Spectra from 600-300 nm were collected after a 2-minute incubation period. Amino acid stocks were prepared as 100 mM stocks in deionized water.

DsaD/E system = test: Two-step Cα/Cβ deuteration then Cα deuterium washout with DsaD in H2O; type: biochemical, Streptomyces scopuliridis; settings: after Cα washout with DsaD in water
Procedure: as §3
An initial reaction was performed with DsaD and DsaE to produce Cα,Cβ-deuterated L-Leu-2,3,3-d3 (25). Following reaction quenching with acetone, centrifugation to remove protein products, and removal of acetone and D2O via rotary evaporation, the dry crude product mixture was subjected to standard reaction conditions with DsaD in water. This reaction led to washout of the Cα deuterium, providing exclusively Cβ-deuterated L-Leu-3,3-d2 (44) with high levels of deuterium incorporation at Cβ (FIG. 5, 86% D incorporation and 98% ee). The site of H/D exchange in these reactions is dictated by the presence or absence of DsaE from the reaction conditions, enabling control of amino acid deuteration patterns.
We performed Cα/Cβ deuteration on a panel of amino acids, quenched the reactions and resubjected the crude product to Cα deuterium washout with DsaD in H2O. […]

[3] = substrate: CC[C@H](C)[C@H](N)C(=O)O; test: Steady-state kinetic analysis of H/D exchange of L-Ile by DsaD with partner protein DsaE; type: biochemical, Streptomyces scopuliridis; settings: pH 8.4
Procedure: (§4) FIGS. 2A-2E. Steady-state kinetic analysis of H/D exchange by the Ile epimerization system. FIG. 2A. Steady-state kinetic analysis describing Cβ-deuteration^a of L-Ile under varied equivalents of partner enzyme DsaE. FIG. 2B. Steady-state kinetic analysis of Cβ-deuteration rates^a at a constant 1 mM L-Ile, measured against increasing equivalents of DsaE. FIG. 2C. Steady-state kinetic analysis of Cα-deuteration^a of L-Ile in the presence and absence of partner protein DsaE. FIG. 2D. Proposed mechanism of selective deuterium incorporation at Cα and Cβ catalyzed by dual protein catalysis. FIG. 2E. UV-visible spectrum of DsaD in the absence and presence of L-Ile.^a Measurement of initial rates was performed in duplicate at 24° C. Conditions: 0.1-10 mM L-Ile, 3 μM DsaD, 50 mM sodium phosphate (pD 8.4), and 0.1 mM PLP in D2O (99.9%). Proteins were exchanged into a 50 mM sodium phosphate-D2O (pD 8.4) solution prior to reaction initiation to minimize proton contamination (<1% H2O). Following quench with MeCN, crude reaction products were subjected to functionalization with Marfey's reagent (L-FDAA) to enable analysis by reverse-phase chromatography and quantification of isotope incorporation by mass spectrometry.
as §1
as §2, with “These measurements were carried out in an iterative fashion to measure Cα deuteration and Cβ deuteration.” left out
Kinetic analysis of biocatalytic L-Ile deuteration: Initial rates of α- or β-deuteration were obtained by means of end-point assay using the quantitation protocol for analytical scale reactions as described above. […] Michaelis constants (KM) for α- and β-deuteration of L-Ile were determined using the concentration range of 0.1-10 mM L-Ile using 3 μM DsaD. […]

DsaD/DsaE complex = DsaD/DsaE complex (Streptomyces scopuliridis, UniProt A0A0D5CCB2); test: as above; type: biochemical
Sequence of DsaD/DsaE complex (A0A0D5CBB6 entry or part of it, one chain of several): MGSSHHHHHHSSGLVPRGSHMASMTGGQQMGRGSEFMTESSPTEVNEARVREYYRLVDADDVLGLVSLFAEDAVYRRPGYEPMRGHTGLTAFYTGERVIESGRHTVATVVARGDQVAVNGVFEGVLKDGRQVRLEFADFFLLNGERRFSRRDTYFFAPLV
Procedure: as §4, §1, §2
Kinetic analysis of biocatalytic L-Ile deuteration: Initial rates of α- or β-deuteration were obtained by means of end-point assay using the quantitation protocol for analytical scale reactions as described above. All reagents were prepared in D2O (99.9% D) and protein stocks were dialyzed (3 exchanges over 3 h at 4° C.) into 50 mM sodium phosphate buffer dissolved in D2O (pD 8.4) using a slide-a-lyzer device with a 3,000 Da cutoff. Reactions were performed at 25° C. in 1 mL Eppendorf tubes. Michaelis constants (KM) for α- and β-deuteration of L-Ile were determined using the concentration range of 0.1-10 mM L-Ile using 3 μM DsaD. Partner protein (DsaE) concentrations were consistent within each experiment and separate experiments were performed using varied equivalents of partner protein (0-50 equiv). Initial velocities were measures in duplicate or triplicate for at least 6 different substrate concentrations for each set of conditions tested. Measurements of the impact of partner protein (DsaE) concentration on the initial rate of β-deuteration were carried out using 1 mM L-Ile, 3 μM DsaD and varying DsaE concentrations between 3 μM-600 μM (1-200 equiv). Under the minimal proton contamination conditions of this assay (99.9% D2O), Cα and Cβ deuteration are assumed to have occurred without back transfer to proton. The data were fit using the Michaelis-Menten equation implemented in Prism.

[4] = DsaD and DsaE clarified lysates, D2O, 5% 1H-water
[5] = lower substrate loading (10 mM)

Molecule: N[C@@H](CO)C(=O)O [Ser]
- Cα and Cβ D-incorporation (DsaD/E complex [1]): did not undergo any deuteration

Molecule: CSCC[C@H](N)C(=O)O [Met, methionine]
- D-incorporation at Cα (DsaD/E complex [1]): high levels of exchange
- D-incorporation at Cβ (DsaD/E complex [1]): moderate levels of D-incorporation

Molecule: [2H]C([2H])(C(C)C)[C@]([2H])(N)C(=O)O [L-Leu-2,3,3-d3]
- deuterium incorporation at Cα (DsaD/E complex [2]; [4]): 95%
- deuterium incorporation at Cβ (DsaD/E complex [2]; [4]): 86%

Molecule: C[C@@H](O)[C@H](N)C(=O)O [Thr, threonine]
- Cα and Cβ D-incorporation (DsaD/E complex [1]): did not undergo any deuteration
- substrate binding to DsaD by UV-vis (DsaD): no binding was observed

Molecule: CC[C@H](C)[C@H](N)C(=O)OC [methyl ester of Ile]
- Cα and Cβ D-incorporation (DsaD/E complex [1]): Neither of these substrates underwent deuteration

Molecule: N[C@@H](Cc1c[nH]c2ccccc12)C(=O)O [Trp, tryptophan]
- D-incorporation at Cα (DsaD/E complex [1]): underwent Cα-deuteration
- D-incorporation at Cβ (DsaD/E complex [1]): no Cβ-deuteration

Molecule: COc1ccc(C[C@H](N)C(=O)O)cc1 [compound 34, (OMe)-L-Tyr]
- D-incorporation at Cα (DsaD/E complex [1]): 99%
- D-incorporation at Cβ (DsaD/E complex [1]): 74%

Molecule: CSC[C@H](N)C(=O)O [S-Me-Cys, S-methylcysteine]
- D-incorporation at Cα (DsaD/E complex [1]): high levels of exchange
- D-incorporation at Cβ (DsaD/E complex [1]): moderate levels of D-incorporation

Molecule: [2H]C([2H])(C(C)C)[C@H](N)C(=O)O [L-Leu-3,3-d2]
- D incorporation at Cβ (DsaD/E system): 86%

Molecule: CO[C@H](C)[C@H](N)C(=O)O [compound 30, L-(OMe)-Thr]
- D-incorporation at Cα (DsaD/E complex [1]): high levels of deuteration
- D-incorporation at Cβ (DsaD/E complex [1]): moderate deuterium incorporation and scrambling of configuration
- substrate binding to DsaD by UV-vis (DsaD): enables productive binding

Molecule: [2H]C([2H])(c1ccccc1)[C@]([2H])(N)C(=O)O [L-Phe-2,3,3-d3]
- deuterium incorporation at Cα (DsaD/E complex [2]; [5]): 95%
- deuterium incorporation at Cβ (DsaD/E complex [2]; [5]): 85%

Molecule: CC(C)CCN [isopentylamine]
- Cα and Cβ D-incorporation (DsaD/E complex [1]): Neither of these substrates underwent deuteration

B1: DsaD/DsaE complex (Streptomyces scopuliridis) (protein)
chain: MGSSHHHHHHSSGLVPRGSHMASMTGGQQMGRGSEFMHIVTTPVARPLTAQERTERCAAPAFGTAFTEHMVSARWNPEQGWHDAELVPYGPLLLDPATVGLHYGQVVFEGLKAFRSHTGEVAVFRPDAHAERMRASARRLMMPEPPEELFLAAVDALVAQDQEWIPDDPGMSLYLRPILFASERTLALRPAREYRFLLVAFITEGYFGPAQRPVRVWVTDEYSRAAAGGTGAAKCAGNYAGSLLAQEEAQRKGCDQVVWLDPVERNWVEEMGGMNLFFVYEAGGSARLVTPPLTGSLLPGVTRDALLRLAPTLGVPVSEAPLSLEQWRADCASGAITEVFACGTAARISPVNEVSTKDGSWTIGAGAPAEGGVAAGEVTGRLSAALFGIQRGELPDSHSWMRPVSPARQSAIT
- Km ([3]; other: 5 equiv. of DsaE (5:1 DsaE:DsaD)): 200 ± 10 µM
- Km ([3]; other: 50 equiv. of DsaE (50:1 DsaE:DsaD)): 300 ± 90 µM
- Km ([3]; other: one equivalent of DsaE, 3 μM DsaD): 2400 ± 680 µM
- Km ([3]; other: with DsaE bound): 120 ± 20 µM

B2: DsaE: small partner protein of aminotransferase DsaD, SEQ ID NO: 3, Streptomyces scopuliridis (protein, listed as Streptomyces scopuliridis)
chain: MTESSPTEVNEARVREYYRLVDADDVLGLVSLFAEDAVYRRPGYEPMRGHTGLTAFYTGERVIESGRHTVATVVARGDQVAVNGVFEGVLKDGRQVRLEFADFFLLNGERRFSRRDTYFFAPLV
modifications: DsaE
- Km (DsaD/DsaE complex; 1 mM L-Ile, 3 μM DsaD, initial rate of Cβ-deuteration vs DsaE, read-out: KM for the formation of the active DsaD/DsaE complex): 40 ± 5 µM
- DsaE concentration at plateau of Cβ-deuteration rate (DsaD/DsaE complex; 1 mM L-Ile, 3 μM DsaD, 100:1 ratio): around 0.3 mM
- KM for association of DsaD and DsaE (DsaD/DsaE complex; as restated in conclusions): 40 µM
